Test [1] concerns Tetranychus urticae. Kind of test: Acaricidal activity against Tetranychus urticae (two-spotted spider mite) infected cowpea plant assessed as mortality at 1 ppm sprayed 24 hr post-infection measured after 3 days. It is filed as functional.
Test [2] has as its system Tetranychus urticae. Kind of test: Acaricidal activity against Tetranychus urticae (two-spotted spider mite) infected cowpea plant assessed as mortality at 10 ppm sprayed 24 hr post-infection measured after 3 days. It is filed as functional.

The term mortality denotes the percentage killed. For `CC1=C[C@H]2C(=O)O[C@H]3C[C@@H](C/C=C(\C)C[C@@H](C)/C=C/C=C(\C=O)[C@]2(O)[C@H](O)[C@@H]1O)O[C@@]1(CC[C@H](C)[C@@H](C)O1)C3`, the mortality at 1 ppm in test [1] worked out at 7%. In test [2], the mortality at 10 ppm was 17%.
The like results for `CC[C@H]1O[C@]2(CC[C@@H]1C)C[C@@H]1C[C@@H](C/C=C(\C)C[C@@H](C)/C=C/C=C(\C=O)[C@]3(O)[C@H](O)[C@H](O)C(C)=C[C@H]3C(=O)O1)O2` were, in that order, 11% and 53%.
The like results for `CCO[C@H]1O[C@@H]2[C@H](O)C(C)=C[C@H]3C(=O)O[C@H]4C[C@@H](C/C=C(\C)C[C@@H](C)/C=C/C=C\1[C@]23O)O[C@@]1(CC[C@H](C)[C@@H](CC)O1)C4` [27-ALPHAETHOXY MILBEMYCIN A4] were, in that order, 25% and 81%.
As to `CC[C@H]1O[C@]2(CC[C@@H]1C)C[C@@H]1C[C@@H](C/C=C(\C)C[C@@H](C)/C=C/C=C3\[C@@H](OC(C)C)O[C@@H]4[C@H](O)C(C)=C[C@@H](C(=O)O1)[C@]34O)O2` [27-ALPHAISOPROPOXY MILBEMYCIN A4], the mortality at 1 ppm in test [1] turned out to be 14%. Further, in test [2], the mortality at 10 ppm came out at 76%.
The like results for `CO[C@H]1O[C@@H]2[C@H](O)C(C)=C[C@H]3C(=O)O[C@H]4C[C@@H](C/C=C(\C)C[C@@H](C)/C=C/C=C\1[C@]23O)O[C@@]1(CC[C@H](C)[C@@H](C)O1)C4` [27-ALPHAMETHOXY MILBEMYCIN A3] were, in that order, 8% and 72%.
The like results for `CC[C@H]1O[C@]2(CC[C@@H]1C)C[C@@H]1C[C@@H](C/C=C(\C)C[C@@H](C)/C=C/C=C3\[C@@H](OC)O[C@@H]4[C@H](O)C(C)=C[C@@H](C(=O)O1)[C@]34O)O2` [27-ALPHAMETHOXY MILBEMYCIN A4] were, in that order, 17% and 92%.
Take `CCO[C@@H]1O[C@@H]2[C@H](O)C(C)=C[C@H]3C(=O)O[C@H]4C[C@@H](C/C=C(\C)C[C@@H](C)/C=C/C=C\1[C@]23O)O[C@@]1(CC[C@H](C)[C@@H](CC)O1)C4` [27-BETAETHOXY MILBEMYCIN A4]: the mortality at 1 ppm in test [1] was 0%. In addition, the mortality at 10 ppm in test [2] amounted to 77%.
In the same order, the values of `CC[C@H]1O[C@]2(CC[C@@H]1C)C[C@@H]1C[C@@H](C/C=C(\C)C[C@@H](C)/C=C/C=C3\[C@H](OC(C)C)O[C@@H]4[C@H](O)C(C)=C[C@@H](C(=O)O1)[C@]34O)O2` [27-BETAISOPROPOXY MILBEMYCIN A4] are 22% and 72%.
In the same order, the values of `CO[C@@H]1O[C@@H]2[C@H](O)C(C)=C[C@H]3C(=O)O[C@H]4C[C@@H](C/C=C(\C)C[C@@H](C)/C=C/C=C\1[C@]23O)O[C@@]1(CC[C@H](C)[C@@H](C)O1)C4` [27-BETAMETHOXY MILBEMYCIN A3] are 3% and 65%.
The like results for `CC[C@H]1O[C@]2(CC[C@@H]1C)C[C@@H]1C[C@@H](C/C=C(\C)C[C@@H](C)/C=C/C=C3\[C@H](OC)O[C@@H]4[C@H](O)C(C)=C[C@@H](C(=O)O1)[C@]34O)O2` [27-BETAMETHOXY MILBEMYCIN A4] were, in that order, 19% and 87%.
Regarding `CC1=C[C@H]2C(=O)O[C@H]3C[C@@H](C/C=C(\C)C[C@@H](C)/C=C/C=C4\C(O)O[C@H]([C@@H]1O)[C@@]42O)O[C@@]1(CC[C@H](C)[C@@H](C)O1)C3` (some centres not stated) [27-HYDROXY MILBEMYCIN A3], in test [1], the mortality at 1 ppm came to 7%. In addition, in test [2], the mortality at 10 ppm turned out to be 17%.
In the same order, the values of `CC[C@H]1O[C@]2(CC[C@@H]1C)C[C@@H]1C[C@@H](C/C=C(\C)C[C@@H](C)/C=C/C=C3\C(O)O[C@@H]4[C@H](O)C(C)=C[C@@H](C(=O)O1)[C@]34O)O2` (some centres not stated) [27-HYDROXY MILBEMYCIN A4] are 11% and 53%.
For the compound `CC1=C[C@H]2C(=O)O[C@H]3C[C@@H](C/C=C(\C)C[C@@H](C)/C=C/C=C4\C(=O)O[C@H]([C@@H]1O)[C@@]42O)O[C@@]1(CC[C@H](C)[C@@H](C)O1)C3` [27-OXOMILBEMYCIN A3], the mortality at 1 ppm in test [1] worked out at 3%. For the same compound, the mortality at 10 ppm in test [2] stood at 3%.
Regarding `CC[C@H]1O[C@]2(CC[C@@H]1C)C[C@@H]1C[C@@H](C/C=C(\C)C[C@@H](C)/C=C/C=C3\C(=O)O[C@@H]4[C@H](O)C(C)=C[C@@H](C(=O)O1)[C@]34O)O2` [27-OXOMILBEMYCIN A4], the mortality at 1 ppm in test [1] worked out at 4%. Also, the mortality at 10 ppm in test [2] came to 11%.
As to `CC1=C[C@H]2C(=O)O[C@H]3C[C@@H](C/C=C(\C)C[C@@H](C)/C=C/C=C4\CO[C@H]([C@@H]1O)[C@@]42O)O[C@@]1(CC[C@H](C)[C@@H](C)O1)C3` [MILBEMYCIN A3], the mortality at 1 ppm in test [1] is 3%. Moreover, the mortality at 10 ppm in test [2] was 69%.
Regarding `CC[C@H]1O[C@]2(CC[C@@H]1C)C[C@@H]1C[C@@H](C/C=C(\C)C[C@@H](C)/C=C/C=C3\CO[C@@H]4[C@H](O)C(C)=C[C@@H](C(=O)O1)[C@]34O)O2` [MILBEMYCIN A4], in test [1], the mortality at 1 ppm was 32%. Further, the mortality at 10 ppm in test [2] stood at 100%.

These data come from ChEMBL document CHEMBL3046761, “Synthesis of 27-oxo, 27-hydroxymilbemycins A3 and A4 and novel 27-alkoxymilbemycins A3 and A4 from milbemycins A3 and A4 and their acaricidal activities” (2002).
